Measured values taken from ChEMBL document CHEMBL1127167, “Synthesis and in vitro acetylcholinesterase inhibitory activity of some 1-substituted analogues of velnacrine” (Bioorg Med Chem Lett, 1993).

Molecular target: T1, Acetylcholinesterase (Rattus norvegicus, UniProt P37136)
T1 sequence (P37136 whole entry): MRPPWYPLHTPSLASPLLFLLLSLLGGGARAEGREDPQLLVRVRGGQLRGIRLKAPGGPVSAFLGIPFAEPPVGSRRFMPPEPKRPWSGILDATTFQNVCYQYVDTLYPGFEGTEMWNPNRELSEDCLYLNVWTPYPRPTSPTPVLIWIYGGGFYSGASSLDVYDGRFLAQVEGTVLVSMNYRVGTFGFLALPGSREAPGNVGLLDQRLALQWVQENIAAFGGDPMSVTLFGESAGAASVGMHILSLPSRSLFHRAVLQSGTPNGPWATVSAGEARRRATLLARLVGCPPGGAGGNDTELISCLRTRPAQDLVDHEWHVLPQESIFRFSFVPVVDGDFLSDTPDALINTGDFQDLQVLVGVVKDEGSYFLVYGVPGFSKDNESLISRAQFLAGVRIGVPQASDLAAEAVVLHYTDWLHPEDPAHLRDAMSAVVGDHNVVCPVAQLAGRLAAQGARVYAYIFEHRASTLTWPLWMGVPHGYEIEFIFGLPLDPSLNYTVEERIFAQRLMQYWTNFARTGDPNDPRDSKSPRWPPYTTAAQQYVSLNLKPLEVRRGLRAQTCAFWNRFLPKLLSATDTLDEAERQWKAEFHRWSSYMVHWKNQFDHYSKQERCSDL
Test: Inhibition of acetylcholinesterase from rat striatal tissue
Type: tissue-based, Striatum

`Nc1c2c(nc3ccccc13)CCCC2O` (stereo unspecified) [VELNACRINE] gave an IC50 of 3.64 µM.

`CCCOC1CCCc2nc3ccccc3c(N)c21` (stereo unspecified) showed an IC50 of 0.193 µM.

Work on `Nc1c2c(nc3ccccc13)CCCC2N1CCOCC1` (stereo unspecified) yielded an IC50 greater than 100 µM.

For `Nc1c2c(nc3ccccc13)CCCC2N1CCC(c2ccccc2)CC1` (stereo unspecified), the IC50 was greater than 100 µM.

`COC1CCCc2nc3ccccc3c(N)c21` (stereo unspecified) showed an IC50 of 4.74 µM.

`CCCCCC(=O)NC1CCCc2nc3ccccc3c(N)c21` (stereo unspecified) was tested, and the IC50 was 51.8 µM.

For `c1ccc(C2=NC3CCCc4nc5ccccc5c(c43)N2)cc1` (stereo unspecified), the IC50 was greater than 100 µM.

For `Nc1c2c(nc3ccccc13)CCCC2N1CCCCC1` (stereo unspecified), the IC50 was 8.4 µM.

`CCNC1CCCc2nc3ccccc3c(N)c21` (stereo unspecified) showed an IC50 of 4.79 µM.

Compound `CC1=NC2CCCc3nc4ccccc4c(c32)N1` (stereo unspecified) has an IC50 greater than 100 µM.

`Nc1c2c(nc3ccccc13)CCCC2Nn1cccc1` (stereo unspecified) showed an IC50 of 8.16 µM.

`Nc1c2c(nc3ccccc13)CCCC2NCc1ccccc1` (stereo unspecified) gave an IC50 of 20.1 µM.

`CCCCNC1CCCc2nc3ccccc3c(N)c21` (stereo unspecified) showed an IC50 of 48.8 µM.

`Nc1c2c(nc3ccccc13)CCCC2N1CCCC1` (stereo unspecified) showed an IC50 of 18 µM.

`Nc1c2c(nc3ccccc13)CCCC2N` (stereo unspecified) showed an IC50 of 8.59 µM.

In the case of `[N-]=[N+]=NC1CCCc2nc3ccccc3c(N)c21` (stereo unspecified), the IC50 is reported as 11.8 µM.

Compound `Nc1c2c(nc3ccccc13)CCCC2N1CCN(c2ccccc2)CC1` (stereo unspecified) has an IC50 greater than 100 µM.

`CCCCOC1CCCc2nc3ccccc3c(N)c21` (stereo unspecified) was tested, and the IC50 was 1.9 µM.

With `CC(=O)NC1CCCc2nc3ccccc3c(N)c21` (stereo unspecified) the IC50 was 64.9 µM.

Compound `COc1ccc(CNC2CCCc3nc4ccccc4c(N)c32)cc1OC` (stereo unspecified) has an IC50 of 38.4 µM.

Work on `CCCNC1CCCc2nc3ccccc3c(N)c21` (stereo unspecified) yielded an IC50 of 12.5 µM.

For `CN1CCN(C2CCCc3nc4ccccc4c(N)c32)CC1` (stereo unspecified), the IC50 was greater than 100 µM.

`Nc1c2c(nc3ccccc13)CCCC2c1cccs1` (stereo unspecified) was tested, and the IC50 was 0.49 µM.

`Nc1c2c(nc3ccccc13)CCCC2NCCc1ccccc1` (stereo unspecified) showed an IC50 of 18.6 µM.

Compound `COc1ccc(C2CCCc3nc4ccccc4c(N)c32)c(OC)c1` (stereo unspecified) has an IC50 of 4.82 µM.

For `CCOC1CCCc2nc3ccccc3c(N)c21` (stereo unspecified), the IC50 was 0.298 µM.
